# From US9868763B2, “Modulators of protease activated receptors” (The University of Queensland, priority 2011, dated 2018)
# Entries after “also recorded” stand apart in the source; their conditions may differ. Like-named read-outs stand apart in the source and are kept apart here.
# Legend:
# [1] = Pharmacokinetics, single oral dose; format: in vivo, Wistar rat
# Description: (§1) Male Wistar rats were surgically implanted with a jugular vein catheter. Blood samples (heparinised) were collected from the catheter of an unanaesthetised, unrestrained rat, 5 min prior to PAR2 antagonist 52 administration (10 mg/kg p.o.) and 30 min, 1-6, 8 and 24 h post-administration. Rats not implanted with a catheter were given PAR2 antagonist 52 (10 mg/kg/day p.o.) four days consecutively (n=6). On the fifth day, plasma, cerebrospinal fluid (CSF), paw tissue and intraperitoneal adipose were collected for LCMS analysis.
# [2] = Pharmacokinetics, four consecutive daily oral doses; format: in vivo, Wistar rat; conditions: 10 mg/kg/day p.o. for 4 days
# Description: as §1
# Water solubility = format: physicochemical
# [3] = test system: β-tryptase-induced paw oedema; assay: β-tryptase-induced paw oedema; format: in vivo, Wistar rat
# Description: Based on previous methods (Kelso E B et al., J Pharmacol Exp Ther 2006, 316(3):1017-24; Suen J Y et al., Br J Pharmacol 2011, doi: 10.1111/j.1476-5381.2011.01610.x.), PAR2 antagonist 52 (10 mg/kg s.c.; n=4), ENMD-1068 (100 mg/kg s.c.; n=4) or vehicle control (DMSO s.c.; n=2) were administered to male Wistar rats. Baseline paw thickness and width were measured using digital calipers (World Precision Instruments, USA) expressed in area (mm^2; thickness×width). Fifteen minutes later, 2Furoyl-LIGLRO-NH2 (350 μg/paw in 100 μL saline) was injected into of the right hind paw pad (intraplantar, i.pl.). The left hind paw acted as a control, receiving saline only. In a separate experiment, vehicle (500 μL olive oil) versus PAR2 antagonist 52 (10 mg/kg p.o. in 500 μL olive oil) only were administered orally to two groups of rats (4 per group). Two hours later, β-tryptase (human recombinant lung, 20 μg in 100 μL saline) was injected into the right hind paw pad (vehicle in left for control) of all animals in each group. In all experiments, paw swelling was measured and expressed in area (mm^2; thickness×width) and plotted as % change from baseline of each individual paw.
# [4] = test system: λ-carrageenan-induced paw oedema; assay: λ-carrageenan-induced paw oedema; format: in vivo, Wistar rat; conditions: 10 mg/kg p.o., 1% λ-carrageenan intraplantar
# Description: Methods were based on literature (Kelso E B et al., J Pharmacol Exp Ther 2006, 316(3):1017-24; Kawabata A et al., Peptides 2001, 23(6):1181-3). Male Wistar rats (n=4 per group) were given 10 mg/kg PAR2 antagonist 52 (p.o. via gavage in olive oil, 500 μL). Control animals received only olive oil. Thirty minutes later, λ-carrageenan was administered into the right hind paw pad (1% w/v in saline, 100 μL, i.pl, Left paw saline control). Paw thickness and width were measured at 1-6, 8 and 24 h (as above) and swelling expressed in area (mm^2) and plotted as % change from baseline of each individual paw.
# [5] = test system: SLIGRL-NH2-induced acute colonic inflammation; assay: PAR2-induced acute colonic inflammation; format: in vivo, Wistar rat; conditions: 10 mg/kg p.o.
# Description: A polyethylene catheter (1.7-mm outer diameter) was inserted 8 cm into the colon via the anus, through which SLIGRL-NH2 (1 mg/rat) or saline vehicle (500 l) was administered. Rats remained anesthetized for 10 min and maintained at an angle of 40° to prevent leakage from the anus. Rats were allowed to recover with food and water supplied. All rats were terminated at 10 h after induction and scored appropriately for disease activity index (DAI) and macroscopic disease (see Disease Activity Index below). Colon tissue was taken for wet/dry ratio and MPO assay.
# DAI for both acute and chronic models was assessed and scored by an expert blinded to treatments. Scores incorporated mobility, gastrointestinal pathology, discomfort, and generalized sickness behaviour criteria (each scored 0-3). Any animal that reached stage 3 in any criteria was euthanized by CO2 inhalation and recorded as a disease-related mortality. Scores were summed and expressed as total disease score (maximum 12). DAI was measured at endpoint only (10 h) in the acute study and daily in the chronic TNBS study.
# Colons were dissected post-mortem and given a macroscopic disease score based on that described previously (Bobin-Dubigeon et al., 2001) with some minor alterations (maximal score 14). The entire colon length was removed between the ileocolic and colorectal junction. Length and maximal distension width were measured. […]
# PAR2 [6] = biological target: T1, PAR2 (Homo sapiens, UniProt P55085); assay: PAR2-induced intracellular Ca2+ release in human macrophages; format: cell-based; design: endogenous in cells
# T1 sequence (P55085 26-397): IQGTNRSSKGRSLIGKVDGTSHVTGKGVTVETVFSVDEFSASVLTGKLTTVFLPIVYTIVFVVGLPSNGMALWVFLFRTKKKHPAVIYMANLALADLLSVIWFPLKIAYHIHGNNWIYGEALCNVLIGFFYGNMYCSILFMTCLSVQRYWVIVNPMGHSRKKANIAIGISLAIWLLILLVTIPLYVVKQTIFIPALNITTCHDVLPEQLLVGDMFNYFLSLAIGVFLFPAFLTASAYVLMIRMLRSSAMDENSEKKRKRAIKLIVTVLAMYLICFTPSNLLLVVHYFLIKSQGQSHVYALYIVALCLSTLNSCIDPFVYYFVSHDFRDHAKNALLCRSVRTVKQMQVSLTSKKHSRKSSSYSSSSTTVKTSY
# Description: Peripheral blood mononuclear cells were isolated from buffy coat (Australian Red Cross, Kelvin Grove, QLD) using Ficoll-paque density centrifugation (GE Healthcare Bio-Science, Uppsala, Sweden). CD14^+ monocytes were positively selected using CD14^+ MACS magnetic beads (Miltenyi Biotech, Auburn, Calif., USA). Monocytes were differentiated to HMDM in complete media using M-CSF (PeptroTech Inc, Rocky Hill, N.J., USA). HMDM were supplemented with 50% fresh complete medium containing CSF-1 on Day 5 after seeding and re-plated for use on Day 7.
# PAR2 [7] = biological target: T1, PAR2; assay: PAR2 agonist inhibition (antagonism): intracellular Ca2+ release in HT29 cells; format: cell-based; design: endogenous in cells; host or cells: HT29 (human colorectal adenocarcinoma); conditions: other ligands; inhibiting Ca2+ release in HT29 cells; 30 min pre-incubation, agonist at EC80
# Description: Cells are seeded overnight in 96-well black walled, clear bottomed, plate at approximately 2×10^4 to 4×10^5 cells per well. […] The cells are then washed twice with HBSS and transferred to a Polarstar spectrofluorimeter (BMG, Durham N.C.).
# The cells are prepared as outlined above then treated with the ‘putative’ antagonist 30 min prior to the addition of either trypsin or a synthetic agonist at a concentration equal to the agonists EC80.
# The cells were then treated with 1 μM of the PAR2 agonist 2f-LIGRLO-NH2 (FIG. 2A, n=5) or 100 nM Trypsin (FIG. 2B, n=1). Each data point represents mean±SEM. Net changes in fluorescence were calculated as a percentage relative to the maximum response given 1 μM 2f-LIGRLO-NH2 or 100 nM Trypsin. Changes in fluorescence (% response) were plotted against logarithmic compound concentrations. The half maximal inhibitory concentration (IC50) values were derived from the dose response curve using a nonlinear regression curve in Graphpad Prism v5.
# [8] = male, Wistar, rat, 10 mg/kg oral gavage, plasma
structure (smiles),measurement,setting,value
CC[C@H](C)[C@@H](NC(=O)[C@H](CC1CCCCC1)NC(=O)c1ccno1)C(=O)N1CCC2(C=Cc3ccccc32)CC1 [Compound 52],presence in plasma after 24 h,[1]; 10 mg/kg oral gavage,No PAR2 antagonist 52 was present
same,concentration at 3 h,"[1]; Wistar, rat, paw tissue homogenate, po, 3 h post administration, 10 mg/kg p.o., LCMS/MS, read-out: concentration in paw tissue homogenates",0.035 µM
same,bioavailability,"[1]; male, Wistar, rat, plasma, po, 10 mg/kg, 10 mg/kg p.o., from AUC 0-6 h, read-out: oral bioavailability F",55%
same,Cmax,[1]; [8],1.7 ± 0.4 µM
same,Tmax,[1]; [8],4 ± 0.6 h
same,half-life,[1]; [8],1.13 ± 0.13 h
same,Cp after fourth dose greater than the single-dose Cp at 24 h,[2],~30%
same,concentration at 5 day,"[2]; Wistar, rat, cerebrospinal fluid, oral, read-out: concentration in cerebral spinal fluid (none detected, LCMS/MS detection limit)",< 0.0018 µM
same,Kp at 24 h,"[2]; Wistar, rat, intraperitoneal adipose / plasma, oral, read-out: intraperitoneal adipose concentration as share of Cp at 24 h",~0.3
same,concentration at 5 day,"[2]; Wistar, rat, intraperitoneal adipose, oral, read-out: concentration in intraperitoneal adipose",0.15 ± 0.02 µM
same,concentration at 24 h,"[2]; Wistar, rat, plasma, oral, read-out: plasma concentration Cp at 24 h after the fourth dose",0.5 ± 0.1 µM
same,water solubility,Water solubility,not water soluble enough to administer i.v.
same,paw oedema induced by β-tryptase,"[3]; 10 mg/kg p.o. in olive oil, β-tryptase 20 μg/paw 2 h later",reduced paw oedema; also recorded: prevented the oedema; also recorded: strongly inhibited
same,β-tryptase-induced mast cell degranulation in the extrasynovium,[3]; 10 mg/kg pretreatment,ameliorated; also recorded: prevented
same,λ-carrageenan-induced oedema reduced to,[4],50%
same,acute colonic inflammation induced by SLIGRL-NH2,[5],inhibited
same,"edema, mucin depletion, PAR2 receptor internalization and mastocytosis",[5],markedly reduced
same,PAR2 antagonist potency relative to ENMD-1068,PAR2 [6],1000 fold
same,IC50,PAR2 [7],1 µM
